One may read the Kd as a measure of binding affinity in units of concentration.

Read-outs that look alike come from different tables or passages of the source. Non-standard residues stand in square brackets, D forms with d.

The conditions of experiment [1]: SPR, mean ± SEM, cited from earlier work. From the text: (§1) Table 3 Binding of OxP-11D and D-4F to oxidized and nonoxidized (phospho)lipids and sterols. | column: apoA-I; KD ± SEM (M) / D-4F
For orientation: Surface plasmon resonance follows binding to a sensor surface in real time, without labels.

A further experiment deals with T1, Bovine albumin (Bos taurus, UniProt P02769).
T1 construct: purchased Sigma-Aldrich
T1 sequence (P02769 25-607): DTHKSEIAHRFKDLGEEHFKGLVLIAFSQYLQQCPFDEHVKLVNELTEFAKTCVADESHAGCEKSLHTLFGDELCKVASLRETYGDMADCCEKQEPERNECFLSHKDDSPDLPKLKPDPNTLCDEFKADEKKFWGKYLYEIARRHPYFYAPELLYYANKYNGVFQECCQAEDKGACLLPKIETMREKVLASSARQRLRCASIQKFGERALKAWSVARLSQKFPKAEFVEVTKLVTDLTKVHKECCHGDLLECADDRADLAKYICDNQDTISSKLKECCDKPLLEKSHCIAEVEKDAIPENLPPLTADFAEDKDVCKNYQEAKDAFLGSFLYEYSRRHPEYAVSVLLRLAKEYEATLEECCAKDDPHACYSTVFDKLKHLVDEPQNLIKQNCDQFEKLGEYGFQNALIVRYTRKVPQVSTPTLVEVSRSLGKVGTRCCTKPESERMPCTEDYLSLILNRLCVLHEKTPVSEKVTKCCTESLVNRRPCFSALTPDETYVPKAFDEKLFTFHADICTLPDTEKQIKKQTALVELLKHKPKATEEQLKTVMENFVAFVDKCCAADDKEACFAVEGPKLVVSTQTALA
Conditions: SPR; mean ± SEM; read-out: KD ± SEM, bovine albumin (control); cited from earlier work.
From the text: as §1

The subject of experiment [2] is LDL-induced monocyte chemotaxis in cultured human aortic endothelial cells (HAEC). The experiment in a line: Monocyte chemotaxis assay (LDL-treated HAEC cultures). The format is cell-based. Conditions: for Monocyte chemotactic activity, dose response: Figure 2; for Monocyte chemotactic activity, Inflammatory Index (II): peptide 1 µg/ml, HAEC treated with LDL 250 µg/ml 8 h, standardized to LDL, II<1 anti-inflammatory, Figure 1. As for the experimental part: Normal human monocytes were isolated as previously described. Human aortic endothelial cells (HAEC) were isolated and maintained as previously reported. Acquisition and use of these cells was in accordance with protocols approved by the UCLA Human Research Subject Protection Committee.
(§2) As previously described, [64], HAEC cells were treated with native LDL (250 µg/ml) in the absence or presence of HDL or tested peptides for 8 h. After these cultures were washed, the medium was replaced by fresh Medium 199 and the cultures were incubated for an additional 8 h. This culture medium was collected and assayed for monocyte chemotactic activity using chambers purchased from Neuroprobe (Cabin John, MD). After monocytes were added to the upper compartment, the chamber was incubated for 60 min at 37°C and subsequently disassembled. The membrane was rinsed, air dried, fixed with 1% glutaraldehyde, stained with 0.1% crystal violet dye, and 12 standardized high power fields were examined microscopically. The number of migrated monocytes was expressed as the mean ±SD of monocytes counted. Values obtained in the absence of HDL were normalized to a value of 1.0. Normalized values >1.0 after HDL addition were considered to be pro-inflammatory, and values <1.0 as being anti-inflammatory.

Another experiment relates to apoE deficient mice. Briefly: In vivo activity in apoE deficient mice: HDL inflammatory index. As for the experimental part: as §2
ApoE null mice on a C57BL/6J background, originally from Jackson Laboratories (Bar Harbor, ME), were maintained in a breeding colony in the Department of Laboratory and Animal Medicine at the David Geffen School of Medicine at UCLA. The mice were maintained on a chow diet (Ralston Purina, St. Louis, MO).
Six hours later, and with continued fasting, blood was removed from the retro-orbital sinus under mild isoflurane anesthesia, and anticoagulated with heparin (2.5 U/ml). Plasma was obtained and fractionated by FPLC. HDL-containing fractions were tested in HAEC cultures for their ability to inhibit LDL-induced monocyte chemotactic activity. All procedures conformed to regulations of the UCLA Animal Research Committee. An HDL inflammatory index was determined using the standard monocyte chemotaxis assay. Indices >1 were interpreted as pro-inflammatory, and indices <1 as anti-inflammatory.

The subject of another experiment is human RBCs. Briefly: Inhibition of CDC-mediated hemolysis. The format is cell-based. Conditions: data not shown.
[3] abbreviates: read-out: KD ± SEM, 12(S)-HPETE.
Where [4] appears, read: read-out: KD ± SEM, 13(S)-HPODE.
The mark [5] stands for this setting: read-out: KD ± SEM, 15(S)-HPETE.
The mark [6] stands for this setting: read-out: KD ± SEM, arachidonic acid.
Where [7] appears, read: read-out: KD ± SEM, linoleic acid.
Setting [8] is: read-out: KD ± SEM, palmitic acid.
[9] abbreviates: peptide 0.01 µg/ml (10 ng/ml) versus 1 µg/ml.
The mark [10] stands for this setting: peptide 0.1 µg/ml versus 1 µg/ml.

On to apoA-I: human apoA-I, for which the “KD ± SEM, 4β-hydroxycholesterol” value in experiment [1] is “BND”. Also, the “KD ± SEM, 20(S)-hydroxycholesterol” value in experiment [1] is recorded as “BND”. Besides, the “KD ± SEM, 22(S)-hydroxycholesterol” value in experiment [1] is on record as “BND”. Further, the “KD ± SEM, 24(S)-hydroxycholesterol” value in experiment [1] was “BND”. Further, the “KD ± SEM, 25-hydroxycholesterol” value in experiment [1] is on record as “BND”. Moreover, the “KD ± SEM, cholesterol” value in experiment [1] is listed as “BND”. Also, the Kd is 1600 ± 0.3 µM in experiment [1] (read-out: KD ± SEM, 5(S)-HPETE); 1300 ± 0.5 µM in experiment [1] (read-out: KD ± SEM, 9(S)-HODE); 850 ± 0.033 µM in experiment [1] (read-out: KD ± SEM, 12(S)-HETE); 820 ± 0.027 µM in experiment [1] (setting [3]); 1800 ± 0.3 µM in experiment [1] (read-out: KD ± SEM, 13(S)-HODE); 1200 ± 0.6 µM in experiment [1] (setting [4]). Moreover, the equilibrium dissociation constant (Kd) was 1300 ± 0.1 µM in experiment [1] (read-out: KD ± SEM, 15(S)-HETE); 1000 ± 0.2 µM in experiment [1] (setting [5]); 21 µM in experiment [1] (read-out: KD ± SEM, KOdiA-PC); 51 µM in experiment [1] (read-out: KD ± SEM, PEIPC); 31 µM in experiment [1] (read-out: KD ± SEM, POVPC); 0.01 µM in experiment [1] (setting [6]). For the same substance, the Kd is 0.0065 µM in experiment [1] (setting [7]), 2 µM in experiment [1] (setting [8]) and 0.021 µM with Bovine albumin.
With “Ac-DWFKAFYDKVAEKFKEAF-NH2 (Ac-[dD][dW][dF][dK][dA][dF][dY][dD][dK][dV][dA][dE][dK][dF][dK][dE][dA][dF]-NH2) [D-4F, a prominent apoA-I-mimetic peptide, Ac-…-NH2, reference compound]”, the Kd in the experiment with Bovine albumin is 3.9 µM.
For the substance “Aib-RE-Ctb-Val-R-Leu-Val-Trp-E-Trp-Trp-RE-Val-NH2 [OxP-13]”, the “Monocyte chemotactic activity, dose response” value was “reduced activity substantially” in experiment [2] (setting [9]) and “relatively small decrease in activity” in experiment [2] (setting [10]). Further, the “Monocyte chemotactic activity, Inflammatory Index (II)” value in experiment [2] is “very similar activity”.
Turning to “RE-Dpa-Thr-G-Leu-Ala-Trp-E-Trp-Trp-RT-Val-NH2 [OxP-11]”, the “Monocyte chemotactic activity, dose response” value was “reduced activity substantially” in experiment [2] (setting [9]) and “relatively small decrease in activity” in experiment [2] (setting [10]). Also, in experiment [2], the “Monocyte chemotactic activity, Inflammatory Index (II)” value is on record as “very similar activity”. The “HDL Inflammatory Index in vivo” value with apoE deficient mice (lower doses 0.5 and 0.1 mg/kg subcutaneously, apoE deficient mice, Figure 3B) is listed as “considerably less active than L-4F”.
On to “RE-Ctb-Thr-G-Leu-Ala-Trp-E-Trp-Trp-RT-Val-NH2 [OxP-2]”, for which the “Inhibition of CDC-mediated hemolysis” value with human RBCs is “enhanced the peptide's ability to inhibit CDC-mediated hemolysis”.
Consider “Ac-DWFKAFYDKVAEKFKEAF-NH2 [D-4F, a prominent apoA-I-mimetic peptide, Ac-…-NH2, reference compound]”, for which the Kd in experiment [1] (read-out: KD ± SEM, 4β-hydroxycholesterol) is 31 µM; in experiment [1] (read-out: KD ± SEM, 5(S)-HPETE), 0.018 µM; in experiment [1] (read-out: KD ± SEM, 9(S)-HODE), 0.015 µM; in experiment [1] (read-out: KD ± SEM, 12(S)-HETE), 0.018 µM; in experiment [1] (setting [3]), 0.17 µM; in experiment [1] (read-out: KD ± SEM, 13(S)-HODE) it was 0.011 µM. Further, the equilibrium dissociation constant (Kd) is 0.021 µM in experiment [1] (setting [4]); 0.022 µM in experiment [1] (read-out: KD ± SEM, 15(S)-HETE); 0.051 µM in experiment [1] (setting [5]); 3.9 µM in experiment [1] (read-out: KD ± SEM, 20(S)-hydroxycholesterol); 15 µM in experiment [1] (read-out: KD ± SEM, 22(S)-hydroxycholesterol); 4.3 µM in experiment [1] (read-out: KD ± SEM, 24(S)-hydroxycholesterol). In addition, the Kd in experiment [1] (read-out: KD ± SEM, 25-hydroxycholesterol) was 2.4 µM; in experiment [1] (read-out: KD ± SEM, KOdiA-PC), 0.00058 µM; in experiment [1] (read-out: KD ± SEM, PEIPC), 6e-05 µM; in experiment [1] (read-out: KD ± SEM, PGPC) it was 0.0063 µM; in experiment [1] (read-out: KD ± SEM, POVPC), 0.0024 µM; in experiment [1] (setting [6]) it was 0.012 µM. The Kd is 0.092 µM in experiment [1] (read-out: KD ± SEM, cholesterol); 0.015 µM in experiment [1] (setting [7]); 0.67 µM in experiment [1] (setting [8]). Moreover, in experiment [2], the “Monocyte chemotactic activity, Inflammatory Index (II)” value is listed as “very similar activity”. In addition, the “HDL Inflammatory Index in vivo” value in the experiment on apoE deficient mice (1 mg/kg subcutaneously, fasting female apoE deficient mice, HDL isolated 6 h after dose, normalized to LDL, Figure 3) is “equally effective”.

The values above are taken from PMC2854715, “Oxpholipin 11D: An Anti-Inflammatory Peptide That Binds Cholesterol and Oxidized Phospholipids” (PLoS ONE, 2010).
